According to publication PMC12780224 (Nature Communications, 2025):

Experiments:
[1] = biological target: T1, RdSqgA (Roseobacter denitrificans, UniProt Q167F5); assay: LC-MS of SQ formation; type: biochemical; conditions: 200 mM NH4HCO3 pH 7.0, room temperature overnight
T1 sequence (Q167F5 1-366): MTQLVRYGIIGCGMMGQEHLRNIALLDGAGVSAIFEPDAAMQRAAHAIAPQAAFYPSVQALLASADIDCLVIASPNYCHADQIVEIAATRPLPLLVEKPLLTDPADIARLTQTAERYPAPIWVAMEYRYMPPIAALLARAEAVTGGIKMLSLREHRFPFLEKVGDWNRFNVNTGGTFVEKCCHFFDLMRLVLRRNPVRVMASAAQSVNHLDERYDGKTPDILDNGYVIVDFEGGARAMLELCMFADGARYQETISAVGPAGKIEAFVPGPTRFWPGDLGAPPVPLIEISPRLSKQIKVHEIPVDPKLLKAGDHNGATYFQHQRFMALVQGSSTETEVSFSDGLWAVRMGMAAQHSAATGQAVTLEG

[2] = biological target: T2, CtSqgA (Chaetoceros tenuissimus, UniProt A0AAD3HCU0); assay: sulfoquinovosidase activity assay; type: biochemical; conditions: details only in supplement
T2 sequence (A0AAD3HCU0 1-457): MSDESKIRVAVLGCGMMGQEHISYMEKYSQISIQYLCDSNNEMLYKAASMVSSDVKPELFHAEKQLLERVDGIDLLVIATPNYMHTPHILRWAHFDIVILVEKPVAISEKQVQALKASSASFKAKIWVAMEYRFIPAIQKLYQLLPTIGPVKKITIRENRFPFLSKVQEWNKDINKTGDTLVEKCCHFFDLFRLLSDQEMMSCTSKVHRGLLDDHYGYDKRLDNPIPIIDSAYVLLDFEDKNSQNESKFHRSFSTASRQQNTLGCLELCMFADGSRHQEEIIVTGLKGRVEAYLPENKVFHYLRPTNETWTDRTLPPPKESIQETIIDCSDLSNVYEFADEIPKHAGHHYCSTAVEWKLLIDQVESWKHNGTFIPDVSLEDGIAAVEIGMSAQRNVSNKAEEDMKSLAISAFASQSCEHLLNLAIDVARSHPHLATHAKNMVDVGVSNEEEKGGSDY

[3] = biological target: T3, PpSqgA (Porphyridium purpureum, UniProt A0A5J4YS60); assay: sulfoquinovosidase activity assay; type: biochemical; conditions: details only in supplement
T3 sequence (A0A5J4YS60 1-369): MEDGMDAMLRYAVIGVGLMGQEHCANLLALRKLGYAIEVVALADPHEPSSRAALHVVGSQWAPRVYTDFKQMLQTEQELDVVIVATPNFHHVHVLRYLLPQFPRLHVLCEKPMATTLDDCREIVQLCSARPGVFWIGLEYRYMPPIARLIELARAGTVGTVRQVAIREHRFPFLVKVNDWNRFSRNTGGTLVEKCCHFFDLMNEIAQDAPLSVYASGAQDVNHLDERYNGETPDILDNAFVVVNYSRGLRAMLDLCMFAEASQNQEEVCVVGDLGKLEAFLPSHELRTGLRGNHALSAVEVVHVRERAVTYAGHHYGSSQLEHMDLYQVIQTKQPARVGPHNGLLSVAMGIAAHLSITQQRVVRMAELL

[4] = substrate: O=[N+]([O-])c1ccc(O[C@H]2O[C@H](CS(=O)(=O)O)[C@@H](O)[C@H](O)[C@H]2O)cc1; assay: purified protein; conditions: 10 mM phosphate buffer pH 7.5 (general assay buffer)

O=S(=O)(O)C[C@H]1O[C@H](OC[C@H](O)CO)[C@H](O)[C@@H](O)[C@@H]1O [SQGro]
LC-MS of SQ formation ([1]; 10 mM NAD+): NAD^+-dependent sulfoquinovosidase that acts on SQGro to form SQ
sulfoquinovosidase activity assay (SQ release) [2]: These homologs have sulfoquinovosidase activity, allowing the liberation of SQ
sulfoquinovosidase activity assay (SQ release) [3]: These homologs have sulfoquinovosidase activity, allowing the liberation of SQ

NC(=O)c1ccc[n+]([C@@H]2O[C@H](COP(=O)(O)OP(=O)(O)OC[C@H]3O[C@@H](n4cnc5c(N)ncnc54)[C@H](O)[C@@H]3O)[C@@H](O)[C@H]2O)c1 [NAD^+]
LC-MS of SQ formation ([1]; 20 uM SQGro): RdSqgA, revealed it to be an NAD^+-dependent sulfoquinovosidase

B1: AmSqgH (Alteromonas macleodii ATCC 27126) (protein)
chain: MSNAFCVNEPEWNDIKAADITEQPFLSDDKTLIVPTQYGELSLSISQFGLRIQSNVNAADDFGMLTQAPERLSLVLSGDQSHSTLAAGDYRLEVFAAPLHFKLYKNDVLVQQSATDGHFVRQHRLPPFAKTDKGWLLSLELSYDEAVYGLGEKWGKLDKRGQLIRSYNHDALGVNAEKSYKNTPYAWSPEGWNLFVHTPAPVTHGVGYALWSQRAYVCLVEDNVLDMFLFHQDSPAKCLQTYSELTGFAPTPPTWSLGVILSKAYYKDADELLAVAREVREKNMPCDVITLDGRAWQDTDTRFAFEWDPKRYADPQPVIDELKALGFKICVWEYPMISVKNPLYKKAADKGWLIKDKRTGEAYRYEWDLSPFGEVLTPLPDSGILDFTHPEAYEFWKTSHKPLFDLGIDMIKADFGEQLEDDNMLSYSGDSGNRLHNVYSMLYNRCVYEAADAYCKTGPFLFSRSAWTGSQRYPSQWGGDPQADWHGLAASIRGSLSWGMSGGPFFATDIGGFYKDTRDAELYVRWAQASVFSAHMRLHGIGPREPWSYGDAASNAVFEALKLRYKLIPYLKETAEKASQTGLPVQRAMALAFPEQPLSHGFEQQFMCGDDLLVVPCVVPGGKIKYYLPKGKWIRFGTEEVVQGEQYREEILALNDVAVFIQKGSRIVMGPDVQHTDMDMSNTTHWPA
Km [4]: 13.0 ± 2.2 mM
kcat [4]: 119 ± 19 s⁻¹
